# Assay results from ChEMBL document CHEMBL4507265 (2021).
# What was measured:
# [1] = biological target: Sigma intracellular receptor 2 (Homo sapiens, UniProt Q5BJF2); experiment: GPCRScan assay: inhibition of Sigma 2; parameters: radioligand conc. used [nm] 5.0, parental cells HEKT
# [2] = biological target: 5'-AMP-activated protein kinase catalytic subunit alpha-1 (Homo sapiens) (UniProt Q13131); settings: Compound concentration 1000.0 nM
# [3] = biological target: Cyclin-dependent kinase 3 (Homo sapiens) (UniProt Q00526); settings: Compound concentration 1000.0 nM
# [4] = biological target: Cyclin-dependent kinase 4 (Homo sapiens) (UniProt P11802); settings: Compound concentration 1000.0 nM
# [5] = biological target: Cyclin-dependent kinase-like 1 (Homo sapiens) (UniProt Q00532); settings: Compound concentration 1000.0 nM
# [6] = biological target: Casein kinase II subunit alpha' (Homo sapiens) (UniProt P19784); settings: Compound concentration 1000.0 nM
# [7] = biological target: Epithelial discoidin domain-containing receptor 1 (Homo sapiens) (UniProt Q08345); settings: Compound concentration 1000.0 nM
# [8] = biological target: Tyrosine-protein kinase Fer (Homo sapiens) (UniProt P16591); settings: Compound concentration 1000.0 nM
# [9] = biological target: Receptor-type tyrosine-protein kinase FLT3 (Homo sapiens) (UniProt P36888); settings: Compound concentration 1000.0 nM
# [10] = biological target: Tyrosine-protein kinase Fyn (Homo sapiens) (UniProt P06241); settings: Compound concentration 1000.0 nM
# [11] = biological target: Rhodopsin kinase GRK7 (Homo sapiens) (UniProt Q8WTQ7); settings: Compound concentration 1000.0 nM
# [12] = biological target: Glycogen synthase kinase-3 beta (Homo sapiens) (UniProt P49841); settings: Compound concentration 1000.0 nM
# [13] = biological target: Homeodomain-interacting protein kinase 4 (Homo sapiens) (UniProt Q8NE63); settings: Compound concentration 1000.0 nM
# [14] = biological target: LIM domain kinase 1 (Homo sapiens) (UniProt P53667); settings: Compound concentration 1000.0 nM
# [15] = biological target: Mitogen-activated protein kinase kinase kinase kinase 3 (Homo sapiens) (UniProt Q8IVH8); settings: Compound concentration 1000.0 nM
# [16] = biological target: MAP kinase-activated protein kinase 5 (Homo sapiens) (UniProt Q8IW41); settings: Compound concentration 1000.0 nM
# [17] = biological target: Dual specificity mitogen-activated protein kinase kinase 4 (Homo sapiens) (UniProt P45985); settings: Compound concentration 1000.0 nM
# [18] = biological target: Serine/threonine-protein kinase MRCK alpha (Homo sapiens) (UniProt Q5VT25); settings: Compound concentration 1000.0 nM
# [19] = biological target: Serine/threonine-protein kinase 4 (Homo sapiens) (UniProt Q13043); settings: Compound concentration 1000.0 nM
# [20] = biological target: Serine/threonine-protein kinase 3 (Homo sapiens) (UniProt Q13188); settings: Compound concentration 1000.0 nM
# [21] = biological target: Serine/threonine-protein kinase Nek1 (Homo sapiens) (UniProt Q96PY6); settings: Compound concentration 1000.0 nM
# [22] = biological target: Mitogen-activated protein kinase 12 (Homo sapiens) (UniProt P53778); settings: Compound concentration 1000.0 nM
# [23] = biological target: Proto-oncogene tyrosine-protein kinase ROS (Homo sapiens) (UniProt P08922); settings: Compound concentration 1000.0 nM
# [24] = biological target: Ribosomal protein S6 kinase alpha-6 (Homo sapiens) (UniProt Q9UK32); settings: Compound concentration 1000.0 nM
# [25] = biological target: SRSF protein kinase 1 (Homo sapiens) (UniProt Q96SB4); settings: Compound concentration 1000.0 nM
# [26] = biological target: SRSF protein kinase 2 (Homo sapiens) (UniProt P78362); settings: Compound concentration 1000.0 nM
# [27] = biological target: Dual specificity testis-specific protein kinase 1 (Homo sapiens) (UniProt Q15569); settings: Compound concentration 1000.0 nM
# [28] = biological target: Transient receptor potential cation channel subfamily M member 6 (Homo sapiens) (UniProt Q9BX84); settings: Compound concentration 1000.0 nM
# [29] = biological target: Serine/threonine-protein kinase 25 (Homo sapiens) (UniProt O00506); settings: Compound concentration 1000.0 nM
# [30] = biological target: 5-hydroxytryptamine receptor 1B (Homo sapiens) (UniProt P28222); settings: Compound concentration 10.0 uM
# [31] = biological target: T1, Alpha-1A adrenergic receptor (Homo sapiens) (UniProt P35348); settings: Compound concentration 10.0 uM
# T1 sequence (whole entry): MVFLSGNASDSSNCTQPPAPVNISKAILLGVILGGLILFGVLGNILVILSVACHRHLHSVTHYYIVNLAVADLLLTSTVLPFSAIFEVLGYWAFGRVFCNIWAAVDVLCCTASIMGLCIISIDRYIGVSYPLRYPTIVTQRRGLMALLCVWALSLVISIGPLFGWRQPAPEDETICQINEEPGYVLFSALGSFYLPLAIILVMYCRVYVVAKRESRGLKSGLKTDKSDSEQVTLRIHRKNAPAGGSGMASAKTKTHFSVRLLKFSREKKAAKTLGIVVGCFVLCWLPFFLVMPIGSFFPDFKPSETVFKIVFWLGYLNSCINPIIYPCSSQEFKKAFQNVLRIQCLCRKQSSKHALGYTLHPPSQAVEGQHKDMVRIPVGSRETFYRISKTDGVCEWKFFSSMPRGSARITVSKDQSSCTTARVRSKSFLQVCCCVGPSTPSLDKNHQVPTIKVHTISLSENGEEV
# [32] = biological target: T2, Muscarinic acetylcholine receptor M1 (Homo sapiens) (UniProt P11229); settings: Compound concentration 10.0 uM
# T2 sequence (whole entry): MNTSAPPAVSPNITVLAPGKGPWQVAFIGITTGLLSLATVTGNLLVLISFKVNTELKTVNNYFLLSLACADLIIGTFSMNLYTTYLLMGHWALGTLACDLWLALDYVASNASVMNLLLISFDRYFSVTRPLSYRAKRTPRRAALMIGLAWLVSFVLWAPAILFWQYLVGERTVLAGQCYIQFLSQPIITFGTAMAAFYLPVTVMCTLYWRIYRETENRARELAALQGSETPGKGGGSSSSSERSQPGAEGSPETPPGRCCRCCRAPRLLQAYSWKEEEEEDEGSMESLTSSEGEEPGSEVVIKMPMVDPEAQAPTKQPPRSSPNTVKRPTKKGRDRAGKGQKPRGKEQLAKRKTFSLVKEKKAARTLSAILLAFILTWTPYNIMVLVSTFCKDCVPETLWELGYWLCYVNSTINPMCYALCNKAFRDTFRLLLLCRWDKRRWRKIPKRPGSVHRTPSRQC
# [33] = biological target: Muscarinic acetylcholine receptor M3 (Homo sapiens) (UniProt P20309); settings: Compound concentration 10.0 uM
# Chain of Sigma intracellular receptor 2 (Q5BJF2 whole entry): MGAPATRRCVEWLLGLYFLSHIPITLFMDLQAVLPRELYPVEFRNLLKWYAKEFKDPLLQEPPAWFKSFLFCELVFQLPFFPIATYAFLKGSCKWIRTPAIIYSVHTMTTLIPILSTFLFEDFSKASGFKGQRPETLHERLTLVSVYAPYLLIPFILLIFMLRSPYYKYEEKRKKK
# Chain of Cyclin-dependent kinase-like 1 (Homo sapiens) (Q00532 whole entry): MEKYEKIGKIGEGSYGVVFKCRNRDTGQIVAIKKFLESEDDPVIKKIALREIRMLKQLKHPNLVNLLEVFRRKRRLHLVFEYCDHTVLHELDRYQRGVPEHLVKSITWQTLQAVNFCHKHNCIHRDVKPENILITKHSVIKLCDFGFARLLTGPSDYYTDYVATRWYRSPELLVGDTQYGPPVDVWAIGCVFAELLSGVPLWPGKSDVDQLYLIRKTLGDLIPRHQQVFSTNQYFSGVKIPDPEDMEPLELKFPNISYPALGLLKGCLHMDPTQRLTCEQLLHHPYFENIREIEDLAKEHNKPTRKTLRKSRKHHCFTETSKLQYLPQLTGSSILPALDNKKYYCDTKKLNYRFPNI
# Chain of Homeodomain-interacting protein kinase 4 (Homo sapiens) (Q8NE63 whole entry, the tested form may be a part): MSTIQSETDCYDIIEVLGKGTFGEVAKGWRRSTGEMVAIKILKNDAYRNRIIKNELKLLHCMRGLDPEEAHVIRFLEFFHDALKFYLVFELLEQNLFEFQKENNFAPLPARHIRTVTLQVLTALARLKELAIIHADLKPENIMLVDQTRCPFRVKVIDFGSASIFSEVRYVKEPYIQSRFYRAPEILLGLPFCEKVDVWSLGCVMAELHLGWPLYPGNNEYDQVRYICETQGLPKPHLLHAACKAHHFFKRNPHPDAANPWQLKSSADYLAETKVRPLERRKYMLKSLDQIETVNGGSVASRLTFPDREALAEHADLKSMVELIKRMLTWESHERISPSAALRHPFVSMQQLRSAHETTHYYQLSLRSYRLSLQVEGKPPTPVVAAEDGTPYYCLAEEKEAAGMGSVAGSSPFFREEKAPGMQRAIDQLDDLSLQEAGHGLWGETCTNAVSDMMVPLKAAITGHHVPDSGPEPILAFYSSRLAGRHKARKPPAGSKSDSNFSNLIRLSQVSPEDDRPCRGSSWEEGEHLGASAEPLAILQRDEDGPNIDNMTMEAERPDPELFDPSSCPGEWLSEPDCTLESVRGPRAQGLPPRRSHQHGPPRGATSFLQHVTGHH
# Chain of Rhodopsin kinase GRK7 (Homo sapiens) (Q8WTQ7 whole entry): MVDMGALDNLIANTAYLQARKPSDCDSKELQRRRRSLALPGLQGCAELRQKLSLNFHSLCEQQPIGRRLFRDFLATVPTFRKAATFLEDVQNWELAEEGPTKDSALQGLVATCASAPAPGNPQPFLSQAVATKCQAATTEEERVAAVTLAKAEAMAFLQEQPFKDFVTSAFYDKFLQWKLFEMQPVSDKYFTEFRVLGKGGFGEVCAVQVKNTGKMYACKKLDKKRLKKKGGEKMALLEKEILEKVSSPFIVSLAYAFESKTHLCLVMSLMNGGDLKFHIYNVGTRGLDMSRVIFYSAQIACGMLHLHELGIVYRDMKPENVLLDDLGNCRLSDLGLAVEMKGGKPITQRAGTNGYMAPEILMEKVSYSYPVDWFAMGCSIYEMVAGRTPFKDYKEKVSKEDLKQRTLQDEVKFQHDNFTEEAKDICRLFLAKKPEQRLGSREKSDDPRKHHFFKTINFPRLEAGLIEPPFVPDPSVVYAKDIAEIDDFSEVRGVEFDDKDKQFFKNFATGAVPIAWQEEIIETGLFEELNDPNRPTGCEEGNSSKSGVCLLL
# Chain of Serine/threonine-protein kinase Nek1 (Homo sapiens) (Q96PY6 whole entry): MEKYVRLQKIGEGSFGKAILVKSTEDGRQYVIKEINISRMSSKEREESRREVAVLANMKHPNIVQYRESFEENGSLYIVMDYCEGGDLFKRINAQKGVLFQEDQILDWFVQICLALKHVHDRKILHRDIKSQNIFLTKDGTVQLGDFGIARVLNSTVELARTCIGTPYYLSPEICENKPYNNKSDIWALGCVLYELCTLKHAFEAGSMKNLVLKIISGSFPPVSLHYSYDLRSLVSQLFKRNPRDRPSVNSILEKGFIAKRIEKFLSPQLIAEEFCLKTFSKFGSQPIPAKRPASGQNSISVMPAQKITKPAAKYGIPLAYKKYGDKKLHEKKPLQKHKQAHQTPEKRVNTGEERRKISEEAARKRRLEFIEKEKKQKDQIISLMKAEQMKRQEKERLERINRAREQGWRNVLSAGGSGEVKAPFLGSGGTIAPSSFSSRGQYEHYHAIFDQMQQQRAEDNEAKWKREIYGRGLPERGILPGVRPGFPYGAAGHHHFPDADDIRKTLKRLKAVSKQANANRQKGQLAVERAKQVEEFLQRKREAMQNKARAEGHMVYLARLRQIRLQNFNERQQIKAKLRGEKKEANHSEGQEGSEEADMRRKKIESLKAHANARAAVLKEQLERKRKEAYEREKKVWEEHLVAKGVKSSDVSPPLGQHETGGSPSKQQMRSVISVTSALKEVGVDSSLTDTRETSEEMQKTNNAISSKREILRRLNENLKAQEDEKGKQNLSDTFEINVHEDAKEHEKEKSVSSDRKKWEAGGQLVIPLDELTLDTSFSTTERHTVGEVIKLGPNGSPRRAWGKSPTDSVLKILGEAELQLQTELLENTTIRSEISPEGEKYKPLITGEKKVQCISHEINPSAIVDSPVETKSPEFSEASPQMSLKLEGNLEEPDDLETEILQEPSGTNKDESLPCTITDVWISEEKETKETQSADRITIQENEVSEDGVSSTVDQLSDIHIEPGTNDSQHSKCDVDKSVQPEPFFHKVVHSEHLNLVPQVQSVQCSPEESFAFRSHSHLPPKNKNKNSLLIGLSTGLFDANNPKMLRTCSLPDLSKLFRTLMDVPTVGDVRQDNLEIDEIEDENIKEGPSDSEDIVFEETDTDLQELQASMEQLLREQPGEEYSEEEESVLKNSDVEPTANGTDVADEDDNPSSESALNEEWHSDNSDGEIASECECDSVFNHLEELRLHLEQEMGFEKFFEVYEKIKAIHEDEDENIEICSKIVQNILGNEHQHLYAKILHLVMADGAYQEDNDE
# Chain of Tyrosine-protein kinase Fer (Homo sapiens) (P16591 whole entry, looked up): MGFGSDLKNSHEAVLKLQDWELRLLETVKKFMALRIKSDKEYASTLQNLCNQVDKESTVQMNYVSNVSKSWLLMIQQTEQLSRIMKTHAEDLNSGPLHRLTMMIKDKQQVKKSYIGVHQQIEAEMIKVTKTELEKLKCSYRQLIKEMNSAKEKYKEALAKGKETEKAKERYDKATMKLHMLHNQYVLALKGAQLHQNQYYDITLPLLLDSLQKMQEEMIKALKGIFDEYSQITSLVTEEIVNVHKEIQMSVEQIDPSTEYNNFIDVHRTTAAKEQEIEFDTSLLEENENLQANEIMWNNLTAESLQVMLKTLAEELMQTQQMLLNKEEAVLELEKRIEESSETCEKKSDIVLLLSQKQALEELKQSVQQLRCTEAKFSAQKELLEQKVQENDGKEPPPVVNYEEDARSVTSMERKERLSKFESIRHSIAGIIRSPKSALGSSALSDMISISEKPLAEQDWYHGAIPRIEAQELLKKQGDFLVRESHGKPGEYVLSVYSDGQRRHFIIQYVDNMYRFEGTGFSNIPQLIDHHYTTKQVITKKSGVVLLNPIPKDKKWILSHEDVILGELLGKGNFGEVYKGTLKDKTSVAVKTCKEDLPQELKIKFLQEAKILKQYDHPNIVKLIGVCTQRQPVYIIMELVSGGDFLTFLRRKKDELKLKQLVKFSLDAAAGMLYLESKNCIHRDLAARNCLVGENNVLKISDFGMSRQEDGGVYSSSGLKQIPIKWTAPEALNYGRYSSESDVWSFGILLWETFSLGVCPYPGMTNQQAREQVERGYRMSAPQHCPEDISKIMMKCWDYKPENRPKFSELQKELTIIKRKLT
# Chain of Serine/threonine-protein kinase 3 (Homo sapiens) (Q13188 whole entry): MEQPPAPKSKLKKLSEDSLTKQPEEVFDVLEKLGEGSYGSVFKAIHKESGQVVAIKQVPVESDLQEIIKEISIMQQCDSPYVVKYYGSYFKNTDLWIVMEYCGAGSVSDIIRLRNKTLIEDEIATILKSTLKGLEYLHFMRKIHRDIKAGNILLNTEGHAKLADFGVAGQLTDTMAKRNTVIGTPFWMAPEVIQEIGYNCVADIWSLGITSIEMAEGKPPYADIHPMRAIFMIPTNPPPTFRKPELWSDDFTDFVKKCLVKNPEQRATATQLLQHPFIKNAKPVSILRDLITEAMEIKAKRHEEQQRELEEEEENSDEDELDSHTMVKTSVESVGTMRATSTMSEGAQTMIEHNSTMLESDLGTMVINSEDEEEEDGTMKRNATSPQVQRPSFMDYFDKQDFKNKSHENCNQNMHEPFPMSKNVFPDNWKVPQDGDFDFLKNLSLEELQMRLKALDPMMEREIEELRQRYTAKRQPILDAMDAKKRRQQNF
# Chain of SRSF protein kinase 1 (Homo sapiens) (Q96SB4 whole entry): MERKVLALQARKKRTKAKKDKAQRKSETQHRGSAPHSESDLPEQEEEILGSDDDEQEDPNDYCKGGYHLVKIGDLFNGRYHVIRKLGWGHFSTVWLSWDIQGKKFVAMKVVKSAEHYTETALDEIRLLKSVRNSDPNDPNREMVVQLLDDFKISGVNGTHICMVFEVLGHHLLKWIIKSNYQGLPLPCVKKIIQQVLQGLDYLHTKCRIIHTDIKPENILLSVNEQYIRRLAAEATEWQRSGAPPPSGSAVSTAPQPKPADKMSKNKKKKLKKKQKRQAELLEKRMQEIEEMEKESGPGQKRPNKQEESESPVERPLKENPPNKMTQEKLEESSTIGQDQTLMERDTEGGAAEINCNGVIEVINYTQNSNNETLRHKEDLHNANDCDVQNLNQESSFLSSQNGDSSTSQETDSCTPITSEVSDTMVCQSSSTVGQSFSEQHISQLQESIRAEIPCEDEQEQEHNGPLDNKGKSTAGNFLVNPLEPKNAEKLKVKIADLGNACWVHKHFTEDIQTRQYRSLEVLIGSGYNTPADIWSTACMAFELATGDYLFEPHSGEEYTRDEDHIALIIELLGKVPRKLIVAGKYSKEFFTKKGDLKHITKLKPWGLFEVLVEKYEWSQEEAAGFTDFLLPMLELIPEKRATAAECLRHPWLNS
Structure (SMILES),Ki ([1]; read-out: Ki) [µM],residual activity [2] [%],residual activity [3] [%],residual activity [4] [%],residual activity [5] [%],residual activity [6] [%],residual activity [7] [%],residual activity [8] [%],residual activity [9] [%],residual activity [10] [%],residual activity [11] [%],residual activity [12] [%],residual activity [13] [%],residual activity [14] [%],residual activity [15] [%],residual activity [16] [%],residual activity [17] [%],residual activity [18] [%],residual activity [19] [%],residual activity [20] [%],also measured
NS(=O)(=O)c1cc(NC(=O)Cc2ccccc2)ccc1Oc1cccc(Cl)c1 [BAY-1797],4.34,71,92,71,98,100,94,73,90,69,77,80,100,87,100,100,82,91,86,78,Ki ([1]; read-out: pKi (converted)): 4.17 µM; residual activity [21]: 93%; residual activity [22]: 100%; residual activity [23]: 81%; residual activity [24]: 84%; residual activity [25]: 62%; residual activity [26]: 88%; residual activity [27]: 100%; residual activity [28]: 84%; residual activity [29]: 88%; inhibition [30]: -2.93%; inhibition [31]: 5.04%; inhibition [32]: 11.4%; inhibition [33]: -0.53%
NS(=O)(=O)c1cc(NC(=O)C2(c3ccccc3Cl)CC2)ccc1Oc1cccc(Cl)c1 [BAY-207],1.94,80,90,70,99,100,83,83,70,100,100,100,58,100,100,89,100,95,73,94,residual activity [21]: 100%; residual activity [22]: 54%; residual activity [23]: 82%; residual activity [24]: 100%; residual activity [25]: 71%; residual activity [26]: 100%; residual activity [27]: 100%; residual activity [28]: 95%; residual activity [29]: 100%; inhibition [30]: 4.81%; inhibition [31]: 15.1%; inhibition [32]: -3.55%; inhibition [33]: 17.9%
